Data taken from patent US20260166045A1, “COMBINATION THERAPY COMPRISING GSPT1-DIRECTED MOLECULAR GLUE DEGRADERS AND PI3K/AKT/mTOR PATHWAY INHIBITORS” (Monte Rosa Therapeutics, Inc., priority 2022, published 2026).

What was measured:
Test in all cases: CellTiter-Glo 2.0 cell viability, 7x7 combination dose response matrix, synergy scoring
Type in all cases: cell-based
[1] = test system: CAL51 cell line; conditions: CAL51, first compound 4.1-1000 nM
From the text: (§1) A study was undertaken to determine whether the combination of a GSPT1-directed MGD and an inhibitor of the PI3K/AKT/mTOR pathway could be effective in killing cancer cells and whether certain combination could elicit a greater than additive effect on cell killing.
(§2) FIG. 1 is a flow diagram of the method used to assess cancer cell killing by a combination of a GSPT1-directed MGD and an inhibitor of the PI3K/AKT/mTOR pathway. Certain of the materials and equipment used in the studies are presented in Table 3 and the cell lines used are presented in Table 4.
(§3) All assays were run in triplicate. Each 384-well plate accommodated six 7×7 dose response matrices (FIG. 2). All compound handling was performed using an Echo 650 Series Acoustic Liquid Handler, which enables fully automated, precise, contact-free acoustic transfer in volumes as low as 2.5 nL.
(§4) The following protocol was used for cell plating: • 1. Warm media to room temperature or 37° C. • 2. Prepare complete phenol-free media by adding 10% FBS+1% Pen-Strep to RPMI 1640 Medium or DMEM. • 3. Aspirate media from T175 tissue culture flask and rinse with 10 ml PBS. • 4. Aspirate PBS and add 2 mL 0.25% trypsin. Incubate the flask at 37° C. for 5 min or until cells are detached. • 5. Add 10 mL complete media to the flask to neutralize the trypsin, then collect cells in a 50 mL conical tube. • 6. Centrifuge cells at 300 g for 5 min. Aspirate media and suspend cell pellet in fresh media. Use cell strainer to strain cells into a new 50 mL conical tube. • 7. […] Mix 100 uL cell suspension with 100 uL trypan blue (1:1) and pipette 20 μL of the mixture into each of 2 counting chambers on a slide. Insert slide. • b. Adjust focus and record the live cell count. At least 2 independent measurements should be taken. […] Cell viability should be greater than 90%. […] Dilute cell suspension to the desired concentration (20000 cells/mL) using complete phenol-free media. Prepare 10 mL cell suspension per plate+an extra 10 mL for priming the liquid handler. • 9. Dispense cells into 384-well plates using the liquid handler at 25 uL/well (500 cells/well). 3 plates should be prepared per compound plate to be treated. • 10. Cells should be dispensed into columns 1-23 only. Media only (no cells) should be dispensed into column 24. • 11. Allow plates to rest at RT for 30 minutes before transferring to the incubator. Incubate cells overnight at 37° C., 95% humidity, and 5% CO2.
(§5) Compound plates were prepared as follows using an Echo 650 Series Acoustic Liquid Handler. • 1. A compound plate containing 7-point dose responses of each compound to be treated is first prepared from stock compounds. • 2. The cell plates are treated with compounds according to the following maps, where the first compound is added across all six 7 by 7 dose response matrices, and its concentration varies by row (FIG. 2; top matrix), whereas the second compound varies for each dose response matrix, and its concentration varies by column (FIG. 2; bottom matrix). Each cell plate receives one Compound A and six different Compound Bs. • 3. To prepare a compound plate, 384-well PP plate with stock compounds (highest concentration) is prepared. Compounds are diluted 1:1000 in the cell plates, e.g. 10 mM on compound plate will be 10 uM on cell plate. A 384-well LDV plate with pre-determined volumes of DMSO is prepared. Echo is used to dilute stock compounds from PP plate into LDV plate to prepare 7-point dose responses.
(§6) Compounds were added to the cells and cell viability was measured after 72 hour incubation using CellTiter-Glo 2.0 Cell Viability Assay (Promega): • 1. For a compound addition, Echo is used to transfer 25 nL from the compound plate wells to the cell plates according to the plate maps shown in FIG. 2. Cell plates are treated in triplicate. Each well of the cell plate has 25 uL media (1:1000 dilution). Incubate cells post-treatment at 37° C., 95% humidity, and 5% CO2 for 72 hrs (step 106). • 2. […]

[2] = test system: CAL51 mutant cell line; conditions: first compound 4.1-1000 nM
From the text: as §1, §2, §3, §4, §5, §6

[3] = test system: EBC-1 cell line
From the text: as §1, §2, §3, §4, §5, §6

[4] = test system: MCF7 cell line; conditions: MCF7, first compound 4.1-1000 nM
From the text: as §1, §2, §3, §4, §5, §6

[5] = test system: MDA-MB-157 cell line; conditions: first compound 4.1-1000 nM
From the text: as §1, §2, §3, §4, §5, §6

[6] = combined with Alpelisib 41-10000 nM
[7] = combined with Capivasertib 41-10000 nM
[8] = combined with Everolimus 41-10000 nM
[9] = combined with GNE-477 41-10000 nM
[10] = combined with KU-0063794 41-10000 nM
[11] = combined with M2698 41-10000 nM
[12] = combined with Everolimus 4.1-1000 nM
[13] = EBC-1, combined with GNE-477 21-10000 nM, first compound 1.05-500 nM
[14] = EBC-1, combined with KU-0063794 21-10000 nM, first compound 1.05-500 nM
[15] = EBC-1, combined with M2698 21-10000 nM, first compound 1.05-500 nM

SMILES: O=C1CCC(N2Cc3ccc(COC(=O)Nc4cc(OC(F)(F)F)ccc4F)cc3C2=O)C(=O)N1 (stereo not shown) [Compound 1-1, [2-(2,6-dioxopiperidin-3-yl)-3-oxo-2,3-dihydro-1H-isoindol-5-yl]methyl N-[2-fluoro-5-(trifluoromethoxy)phenyl]carbamate]
- Mean Bliss synergy score [1, 6]: 14.61
- Mean Loewe synergy score [1, 6]: 11.03
- Mean Bliss synergy score [1, 7]: 32.32
- Mean Loewe synergy score [1, 7]: 28.73
- Mean Bliss synergy score [1, 8]: 29.55
- Mean Loewe synergy score [1, 8]: 34.51
- Mean Bliss synergy score [1, 9]: 12.11
- Mean Loewe synergy score [1, 9]: 12.09
- Mean Bliss synergy score [1, 10]: 20.80
- Mean Loewe synergy score [1, 10]: 19.07
- Mean Bliss synergy score [1, 11]: 18.29
- Mean Loewe synergy score [1, 11]: 22.14
- Mean Bliss synergy score [2, 6]: 4.76
- Mean Loewe synergy score [2, 6]: 0.35
- Mean Bliss synergy score [2, 7]: −0.44
- Mean Loewe synergy score [2, 7]: −3.66
- Mean Bliss synergy score [2, 12]: −3.14
- Mean Loewe synergy score [2, 12]: 4.91
- Mean Bliss synergy score [2, 9]: 2.54
- Mean Loewe synergy score [2, 9]: −2.04
- Mean Bliss synergy score [2, 10]: 2.83
- Mean Loewe synergy score [2, 10]: −1.46
- Mean Bliss synergy score [2, 11]: −2.37
- Mean Loewe synergy score [2, 11]: −2.73
- Mean Bliss synergy score [3, 13]: 12.03
- Mean Loewe synergy score [3, 13]: 1.96
- Mean Bliss synergy score [3, 14]: 13.27
- Mean Loewe synergy score [3, 14]: −6.72
- Mean Bliss synergy score [3, 15]: 10.48
- Mean Loewe synergy score [3, 15]: 8.11
- Mean Bliss synergy score ([3]; combined with GNE-477 (21 nM to 10 uM), EBC-1 cell line, mean across dose response matrix, 72 hrs): 12.03
- Mean Bliss synergy score [4, 6]: 1.44
- Mean Loewe synergy score [4, 6]: 6.88
- Mean Bliss synergy score [4, 7]: 1.60
- Mean Loewe synergy score [4, 7]: 11.02
- Mean Bliss synergy score [4, 8]: 6.39
- Mean Loewe synergy score [4, 8]: 17.49
- Mean Bliss synergy score [4, 9]: 8.82
- Mean Loewe synergy score [4, 9]: 12.53
- Mean Bliss synergy score [4, 10]: 9.78
- Mean Loewe synergy score [4, 10]: 14.51
- Mean Bliss synergy score [4, 11]: 8.47
- Mean Loewe synergy score [4, 11]: 15.52
- Mean Bliss synergy score [5, 6]: −2.43
- Mean Loewe synergy score [5, 6]: 2.54
- Mean Bliss synergy score [5, 7]: 3.83
- Mean Loewe synergy score [5, 7]: 7.36
- Mean Bliss synergy score [5, 8]: 1.61
- Mean Loewe synergy score [5, 8]: 8.84
- Mean Bliss synergy score [5, 9]: 1.72
- Mean Loewe synergy score [5, 9]: 6.42
- Mean Bliss synergy score [5, 10]: 2.25
- Mean Loewe synergy score [5, 10]: 6.64
- Mean Bliss synergy score [5, 11]: 4.89
- Mean Loewe synergy score [5, 11]: 7.65
